# Measurements from patent US8227621B2, “Cyanine dyes and methods of use” (priority 2005, dated 2012).
# pIC50: −log10 of the molar value. Square brackets hold non-standard residues; d marks the D form. Peptide text beside a SMILES is read from it. NIR Reporter Dye A = not defined here; Sta = CC(C)C[C@H](N)[C@@H](O)CC(=O)O; Compound 6 = not defined here
# Experiments:
# Assay type in all cases: biochemical
# [1] = biological target: T1, BACE-1 protease enzyme (Homo sapiens, UniProt P56817); assay: Effect of DMSO concentration on BACE-1 enzyme activity; details: vs absence of DMSO
# T1 construct: purchased Calbiochem
# Description: In this experiment, the BACE-1 protease substrate having Structure IV (200 nM), was incubated with various amounts of BACE-1 protease enzyme (0 to 100 nM) and DMSO concentrations (e.g., 0, 2, 5 or 10%) at room temperature for 1 hour. The enzymatic reactions were then terminated upon the addition of stop buffer and the fluorescence intensities were measured on an Aerius® imaging system. The addition of stop buffer further diluted the DMSO concentrations in the reaction solution from 0, 2, 5, 10% DMSO to 0, 0.5, 1.25, 2.5%, respectively. The change in fluorescence intensity observed for the different DMSO concentrations is a reflection of the interference of DMSO on the BACE-1 enzyme activity. […] DMSO concentration increase to 5% and 10%, the BACE-1 enzyme activity decreased 20% and 35% respectively of the original enzyme activity at the absence of DMSO throughout the enzyme concentration range.
# [2] = biological target: T2, HIV-1 protease (Human immunodeficiency virus type 1 group M subtype B, UniProt P04585); assay: Effect of DMSO and compound interferences on the HIV-1 protease assay; details: DMSO 0%, 2.5%, 5% and 10%; 2.5-80 nM protease
# T2 construct: Recombinant HIV-1 protease; purchased BACHEM Biosciences
# Description: To measure the tolerance of the HIV-1 protease assay to the presence of dimethyl sulfoxide (DMSO), 1 μM of substrate was incubated with 80 nM, 40 nM, 20 nM, 10 nM, 5 nM and 2.5 nM of HIV-1 protease in an assay buffer containing 10%, 5%, 2.5% or 0% DMSO. After incubation at 37° C. for 1.5 hours, the plate was treated with 0.8 M sodium phosphate stop buffer and then scanned on Aerius® System (LI-COR® Biosciences).
# The robustness of the protease assay was evaluated against fluorescent, color quenching and light scattering interferences, which are the three major sources of compound interferences in high-throughput fluorescent assay screening. In these experiments, protease activity of the HIV-protease assay of the invention was measured in the presence of various amounts of the interference source and compared to that in the absence of the interference.
# Fluorescein, a highly fluorescent compound, was chosen as the model fluorescent compound interference source. A series of fluorescein concentrations were mixed with the HIV-1 peptide substrate in the assay buffer system. These wells were then treated either with the enzyme (positive wells) or without the enzyme (negative wells) and incubated at 37° C. for 1 hour.
# [3] = biological target: human recombinant β-secretase (BACE-1) (Homo sapiens, UniProt P56817); assay: BACE-1 enzyme inhibition assay; details: 100 nM BACE-1 mixture, 200 nM substrate Structure IV, room temperature 1 hour, Rodbard model
# Description: The BACE-1 assay buffer consists of 50 mM sodium acetate, 10 mM Tris-HCl, 10 mM NaCl, 0.002% Triton X-100, pH adjusted to 4.5. The BACE-1 stop buffer is a 0.8 M sodium phosphate buffer with 0.25 mg/mL BSA (pH 7.8). A characterized BACE-1 inhibitor, β-secretase inhibitor III, is purchased from Calbiochem (CA) (Cat # 565780). […] Two solid-state diode lasers at 680 nm and 780 nm are used as the excitation light sources and their corresponding fluorescence detection is accomplished by two silicon avalanche photodiodes at 710±10 nm and 810±10 nm. […]
# The serially diluted solutions containing the BACE-1 peptide inhibitor (final concentrations from 0 to 2500 nM) were mixed with BACE-1 in BACE-1 assay buffer (total BACE-1 mixture final concentration of 100 nM) for 15 minutes followed by the addition of the BACE-1 protease substrate having Structure IV in a final concentration 200 nM. […] The fluorescence intensity was measured on Aerius® infrared imaging system (FIG. 22A).
# [4] = tested on: human recombinant β-secretase (BACE-1); assay: BACE-1 enzyme activity assay; details: 200 nM substrate, 400 nM BACE-1 mixture, 100 minutes
# Description: Purified human recombinant β-secretase (BACE-1) is purchased from Calbiochem (CA). The batch size of 50 μg is supplied as a mixture of the ˜68-70 KDa proenzyme and the ˜65-67 KDa mature enzyme in lyophilized form from sterile-filtered 150 mM NaCl, 50 mM Tris-HCl, pH 7.5. The product is then re-constituted with 100 μL sterile water immediately prior to use.
# The BACE-1 assay buffer consists of 50 mM sodium acetate, 10 mM Tris-HCl, 10 mM NaCl, 0.002% Triton X-100, pH adjusted to 4.5. […] A characterized BACE-1 inhibitor, β-secretase inhibitor III, is purchased from Calbiochem (CA) (Cat # 565780). […] Two solid-state diode lasers at 680 nm and 780 nm are used as the excitation light sources and their corresponding fluorescence detection is accomplished by two silicon avalanche photodiodes at 710±10 nm and 810±10 nm. […]
# The effect of enzyme concentration on proteolytic activity of the β-secretase (β-site amyloid precursor protein cleaving enzyme 1; BACE-1), is shown in FIGS. 20A-C. […] The enzymatic reaction was stopped by addition of BACE-1 stop buffer and the fluorescence was recorded by Aerius® infrared imaging system. […] Based on the fluorescence standard curve obtained (FIG. 20B), the degree of hydrolysis of BACE-1 peptide was determined as 53%. With increased amount of hydrolysis, higher fluorescence increase is expected.
# [5] = tested on: trypsin; assay: NIR-dye labeled casein protease assay with trypsin; details: 10 μg/mL aprotinin; 20 nM casein conjugate, 5 μg/mL trypsin
# Description: Casein-NIR Reporter Dye B concentration is 20 nM, trypsin concentration is 5 μg/mL, and aprotinin concentration varies from 10 μg/mL, 5 μg/mL, 1.25 μg/mL, 0.31 μg/mL, 78 ng/mL, 19.5 ng/mL, 4.9 ng/mL, to 1.2 ng/mL. Trypsin was pre-incubated with the inhibitors for 1 hour at 37° C.
# Described below is a general method based on the over labeling of casein, with a near-infrared dye, i.e., NIR Reporter Dye B (a NIR-dye labeled casein substrate), for a protease activity microplate assay. The model protease assay uses the labeled casein as the substrate with trypsin as the enzyme, and the fluorescence emission is measured on a LI-COR® Biosciences' Aerius® microplate reader. NIR Reporter Dye B emits at 786 nm, yet it is still a very bright dye (see, FIG. 10).
# The proteolytic reactions are carried out in 96-well plates with 50 mM TRIS buffer pH 7.8. […] (The reagent […] and its protein labeling and purification protocols are from LI-COR® Biosciences. Casein, trypsin, and aprotinin are all purchased from Sigma-Aldrich. Protein molecular weight markers labeled with a 700 nm fluorescence dye are from LI-COR® Biosciences.) The reactants are incubated at 37° C. for one hour and then stopped by adding aprotinin to 10 μg/mL final concentration. Then, after being spun, the plates are read on an the LI-COR® microplate reader Aerius®. […]
# T1 sequence (P56817 46-457 limits assumed): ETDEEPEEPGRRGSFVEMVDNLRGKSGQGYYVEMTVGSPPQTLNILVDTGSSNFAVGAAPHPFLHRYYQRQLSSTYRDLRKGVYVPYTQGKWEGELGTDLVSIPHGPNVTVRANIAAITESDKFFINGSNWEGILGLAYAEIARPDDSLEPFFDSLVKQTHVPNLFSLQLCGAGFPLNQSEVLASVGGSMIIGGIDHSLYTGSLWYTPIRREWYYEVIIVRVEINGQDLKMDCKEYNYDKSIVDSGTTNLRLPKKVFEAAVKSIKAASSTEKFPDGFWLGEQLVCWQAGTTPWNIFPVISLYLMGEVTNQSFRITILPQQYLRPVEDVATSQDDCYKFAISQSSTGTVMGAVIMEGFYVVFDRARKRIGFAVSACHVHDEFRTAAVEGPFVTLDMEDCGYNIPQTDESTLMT
# Chain of human recombinant β-secretase (BACE-1) (Homo sapiens, UniProt P56817) (P56817 46-457 limits assumed): as above
compound,measurement,setting,value
"C[S+](C)[O-] [DMSO, dimethyl sulfoxide]",reduction of BACE-1 protease enzyme activity,[1]; DMSO 2%,≤ 10%
same,decrease of BACE-1 enzyme activity,[1]; DMSO 5%,20%
same,decrease of BACE-1 enzyme activity,[1]; DMSO 10%,35%
same,effect on cleavage of peptide substrate,[2],no significant effect
"CC(C)C[C@H](NC(=O)[C@H](CC(N)=O)NC(=O)[C@@H](NC(=O)[C@@H](N)CCC(=O)O)C(C)C)[C@@H](O)CC(=O)N[C@H](C(=O)N[C@@H](C)C(=O)N[C@@H](CCC(=O)O)C(=O)N[C@@H](Cc1ccccc1)C(N)=O)C(C)C [Statine-derived peptide inhibitor, H-Glu-Val-Asn-Statine-Val-Ala-Glu-Phe-NH2] (H-EVN[Sta]VAEF-NH2)",pIC50,[3],7.24
Structure IV: β-secretase (BACE-1) protease substrate peptide conjugated to NIR Reporter Dye A and Compound 6 (SEQ ID NO:5) ({NIR Reporter Dye A}-SEVNLDAEFRK(Compound 6)RR-OH; reading uncertain),fluorescence intensity increase over substrate not treated by enzyme,[4]; room temperature,12 fold
same,degree of hydrolysis of BACE-1 peptide,[4]; from fluorescence standard curve,53%
aprotinin,fluorescence intensity change between total trypsin activity suppression and no inhibition,[5],more than 20 fold
